Entries after “also recorded” stand apart in the source; their conditions may differ.
What was measured:
hERα [1] = molecular target: T1, hERα (Homo sapiens, UniProt P03372); assay: Transient transfection reporter assay for hERα in MCF-7 cells; assay type: cell-based; parameters: Relative Estrogenic Activity: dose or concentration left out as unconfirmed; conditions: for Relative Estrogenic Activity: MCF-7 cells transfected with hERα, DMSO set as 1; for estrogenic effect: MCF-7 cells, hERα, compared with DMSO and tamoxifen; for Relative Antiestrogenic Activity at 2.5 μM: with 1 nM estradiol, 1 nM E2 used as reference (1); for antiestrogenic / inhibition activity: against 1 nM estrogen
T1 construct: mammalian expression plasmid containing full length human ER cDNA, pCMV-hER; expressed in transfected cells; host or cells: MCF-7 human breast cancer cells
T1 sequence (P03372 1-595): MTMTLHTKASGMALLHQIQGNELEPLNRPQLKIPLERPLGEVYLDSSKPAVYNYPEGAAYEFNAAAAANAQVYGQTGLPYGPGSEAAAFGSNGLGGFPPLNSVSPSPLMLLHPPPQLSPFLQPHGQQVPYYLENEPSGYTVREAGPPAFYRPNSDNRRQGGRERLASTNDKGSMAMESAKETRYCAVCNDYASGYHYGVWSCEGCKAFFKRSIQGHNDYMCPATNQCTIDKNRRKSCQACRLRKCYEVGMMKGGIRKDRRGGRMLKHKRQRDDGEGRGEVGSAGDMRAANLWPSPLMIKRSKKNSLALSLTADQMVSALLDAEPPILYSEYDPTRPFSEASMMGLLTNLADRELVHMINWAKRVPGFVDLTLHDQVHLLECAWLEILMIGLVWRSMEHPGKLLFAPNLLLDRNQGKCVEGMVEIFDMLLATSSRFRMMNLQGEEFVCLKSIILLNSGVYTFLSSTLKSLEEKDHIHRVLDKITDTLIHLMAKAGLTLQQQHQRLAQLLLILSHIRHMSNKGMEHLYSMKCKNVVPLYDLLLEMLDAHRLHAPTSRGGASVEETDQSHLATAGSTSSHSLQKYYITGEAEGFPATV
Protocol: For the transient transfection reporter assays, the cells were plated in triplicate in 12-well plates at a density of 300000 cells/well in the phenol red-free DMEM (GIBCO/BRL, Grand Island, N.Y.) supplemented with 10% charcoal-stripped fetal bovine serum (Hyclone, Logan, Utah), Penicillin (100 unit/ml)/Streptomycin ([…]), 2 mML-glutamine and 1 mM sodium Pyruvate. 24 hrs later, the cells were transfected with three plasmids by using Superfect transfection kit (Qiagen, Valencia, Calif.). For the detection of hER activity, cells were transfected with 2 g hER expression plasmid (pCMV-ER ), 6 g luciferase reporter plasmid containing estrogen receptor response element (PGL-TATA-Luc), and 600 ng normalization control, β-galactosidase reporter plasmid (pCMV ). For the detection of hER activity, cells were transfected with 3 ug hER expression plasmid (pcDNA3.1-hER), 6 g luciferase reporter plasmid containing estrogen receptor response element (PGL-TATA-Luc), and 600 ng pCMV. For determining the influence of ER's major coactivator in breast, AIB 1, 2 g pcDNA3.1-AIB1 was added into the transfection plasmid solution mentioned previously.
The transfected cells were rinsed with PBS and treated with various concentrations of test molecules and one […] (vehicle, DMSO or methanol) in phenol red-free culture medium. After incubation for further 24 hrs, the cells were washed with PBS and lysed with lysis buffer (Pierce, Rockford, Ill.). The lysate was used to determine the luciferase activity for ER's activity and the β-galactosidase activity for the normalization of transfection efficiency.
For the luciferase activity assay, 20 μl of lysate and 100 μl luciferase assay buffer (Promega, Madison, Wis.) were added into a well of 96-well plate. The luminescence was detected by using luminescence microplate reader, LumiCount (Packard, Boston, Mass.). For the β-galactosidase activity assay, […] β-galactosidase assay buffer (Clontech, Palo Alto, Calif.) were added into a well of 96-well plate. The β-galactosidase activity was measured as luminescence strength by using luminescence microplate reader, LumiCount (Packard, Boston, Mass.). The normalized reporter activity was calculated by the luciferase activity divided by that of β-galactosidase.
The transient transfection reporter assay was used to determine the estrogenic or antiestrogenic activity of tested compounds in employed human breast cancer cells, MCF-7 cells that are cotransfected with hERα expression and reporter plasmids. […] […] The estrogenic (antiestrogenic) activity was determined by dividing the luciferase activity by the β-galactosidase activity. To determine the influence of estrogen receptor's major coactivator in breast cancer, AIB1, for the compounds' estrogenic activity, the expression vector of AIB1 was additionally cotransfected with the plasmids mentioned above.

MDA-MB-231 cells = assay: hER negative breast cancer cell proliferation assay; assay type: cell-based, human; conditions: hER negative cell line
Protocol: MCF-7 or MDA-MB-231 cells were inoculated into 12-well culture plates at 10000 cells in 2 ml maintained medium per well. Cells were allowed to attach to the bottom for 24 hrs incubation, then the seeding medium was removed and replaced by the experimental medium (phenol red-free DMEM supplemented with 5% charcoal-stripped fetal bovine serum and Penicillin (100 unit/ml)/Streptomycin ([…])). After 24 hr incubation, the test molecules dissolved in DMSO were added in the wells. […] The culture was continued for 3 days and the medium and tested compounds were replaced every two days. The final cell numbers were estimated with CellTiter proliferation assay kit (Promega, Madison, Wis.) by measuring the absorbance at 570 nm, which is directly proportional to the number of living cells in the culture.
In this assay, MDA-MB-231 breast cancer cell line, a hER negative cell line, was used. DMSO was used as reference.

hERα [2] = molecular target: T2, hERα (Homo sapiens, UniProt P03372); assay: Yeast two-hybrid and filter lift assay of hERα dimerization; assay type: cell-based
T2 construct: the full length hERα was inserted into pGAD-GAL4 and pGBD-GAL4 vectors; expressed in transfected cells; host or cells: S. cerevisiae Y190 transformed with pGBT-hER (pGBKT7) and pGAD-hER (pGADT7)
T2 sequence (P03372 1-595) 1: T1 sequence (P03372 1-595)
T2 sequence (P03372 1-595) 2: T1 sequence (P03372 1-595)
Protocol: The transformed yeasts with yeast two-hybrid vectors were cultured in synthetic medium lacking trytophan, and leucine. […] After that, the membranes were soaked in 0.4 ml Z-buffer/Xgal (60 mM Na2HPO4, 40 mM NaH2PO410 mM KCl, 1 mM MgSO4, 0.1% SDS, 50 mM -mercaptoethanol, 20 mM Xgal). The pictures of the results were taken within 2 and 3 hours after the -galactosidase assay was processed.
Dimerization of estrogen receptor plays an essential role in regulating estrogen receptor's functions including DNA binding, transactivation, and coactivator recruitment. In this study, yeast two hybrid and filter lift assays were used to determine the ability of compounds 2 and 6 to interrupt the dimerization of hERα. For setting up yeast two hybrid assay, the full length hERα was inserted into pGAD-GAL4 and pGBD-GAL4 vectors. In pGBD-GAL4, hERα was fused to the GAL4 DNA binding domain through its N terminus. In pGAD-GA14, hERα was fused to the GAL4 activation domain through its N terminus. When the dimerization of hERα occurs mainly through its C terminus, the GAL4 DNA binding domain binds to the repeated GAL4 response element located in front of the β-gal reporter gene and the whole complex, GAL4-BD/hERα/hERα/GAL4-AD, turns on the synthesis of the product of β-gal reporter gene. […] Filter lift assay in which X-gal was used, was employed to qualitatively determine the activity of β-galactosidase.

| Structure (SMILES) | Relative Estrogenic Activity (hERα [1]) | estrogenic effect (hERα [1]) | Relative Antiestrogenic Activity at 2.5 μM (hERα [1]) | proliferation effects against MDA-MB-231 cells (FIG. 6, words) (MDA-MB-231 cells) | antiestrogenic / inhibition activity (hERα [1]) | inhibitory activity against hERα dimerization in combination with estrogen (hERα [2]; combined with estrogen) | blue color change of yeast colony in combination with estrogen (hERα [2]; estrogen's colony as reference, more blue = less inhibition) | induction of hERα dimerization, compound alone (hERα [2]; tested alone) |
| --- | --- | --- | --- | --- | --- | --- | --- | --- |
| CCCCNC(=O)CCCCCCCCCCOCC1Cc2ccccc2CN1C(=O)c1cccc(OC)c1 (stereo not shown) [Compound 4] | 0.78 | do not exert any estrogenic effects | 0.79 | do not inhibit or stimulate the growth |  |  |  |  |
| CCCCNC(=O)CCCCCCCCCCOCC1Cc2ccccc2CN1C(=O)c1cccc(O)c1 (stereo not shown) [Compound 6] | 1.03 | do not exert any estrogenic effects | 0.44 | do not inhibit or stimulate the growth | strongest inhibition activity | inhibitory activity is higher than tamoxifen's; also recorded: obvious inhibitory activity | slight blue color change | did not induce hERα dimerization; also recorded: do not promote the dimerization of hERα |
| CCCCNC(=O)CCCCCCCCCCOCC1Cc2ccccc2CN1C(=O)c1ccc(O)cc1 (stereo not shown) [Compound 7] | 2.05 | highest estrogenic effect | 0.76 |  | moderate antiestrogenic activity |  |  |  |

From patent publication US7601739B2, “Compounds having antiestrogenic and tissue selective estrogenic properties, and compounds with anti-androgenic properties for treatment of prostate cancer and androgen receptor dependent diseases” (Virgina Commonwealth University, priority 2006, dated 2009)
